Experimental findings from patent EP4653008A1, “TRADITIONAL CHINESE MEDICINE COMPOSITION HAVING EFFICACY IN TREATING COLDS AND USE THEREOF” (Shijiazhuang Yiling Pharmaceutical Co., Ltd., priority 2023, dated 2024) are described below.

Values after ≈ are worked out from the molar mass of the structure shown. Some results are limits rather than exact numbers.

Assay [1] concerns Vero. The assay is described as follows: in vitro cytotoxicity (CCK-8). It is filed as cell-based, African green monkey. The settings on record: Chlorocebus sabaeus; Vero cells; 72 h; n=3.
Assay [2] deals with rhinovirus (Rhv). Description: in vitro antiviral assay (CPE, CCK-8). It is filed as cell-based. To be noted: Enterovirus, H1-HeLa.
In assay [3] the test system is parainfluenza virus (PIV). Description: in vitro antiviral assay (CPE, CCK-8). It is filed as cell-based. To be noted: LLC-MK2 host cells, 100 TCID50, n=4.
Assay [4] deals with LLC-MK2. Description: in vitro cytotoxicity (CCK-8). It is filed as cell-based, monkey. The settings on record: Primates; LLC-MK2 cells; 72 h; n=3.
Assay [5] deals with enterovirus (EV71). Description: in vitro antiviral assay (CPE, CCK-8). The class given is cell-based. The settings on record: LLC-MK2 host cells, 100 TCID50, n=4. Here is the method:
• (1) Test Grouping: Concentrations were set up based on the comprehensive results of cytotoxicity assays and OD450nm, values, and literature reports on the antiviral effects of positive control drugs. The concentration without significant toxic effects on cells under microscopic observation was selected as the starting concentration for the in vitro antiviral test. […] All of them were diluted into 5 concentrations, with 4 replicate wells set up for each concentration. A virus titer of 100 TCID50 was used to infect the cells. The grouping was as follows: virus + drug group, in which the drug group included the test substance group and the positive control drug group; the virus control group (with virus and no drug), and the cell control group (with virus maintenance solution only). See Table 3 below for detail. • (2) Cell Plating: Cells were prepared into a single cell suspension (1×10^4 cells/mL), seeded into a 96-well cell culture plate at 100 µL per well, and incubated overnight in a 37°C, 5% CO2 incubator. • (3) Addition of Drug and Observation: The medium was discarded, and the cells were washed twice with 1×PBS. […] The OD450nm value of the cells was read using a microplate reader. The inhibition rates of virus by different concentrations of the test substance and their median effective concentration (EC50) against virus were calculated as follows. […]

Assay [6] relates to Coxsackievirus B3 (CVB3). The assay is described as follows: in vitro antiviral assay (CPE, CCK-8). It is filed as cell-based. To be noted: Enterovirus B, LLC-MK2.
Assay [7] relates to H1HeLa. The assay is described as follows: cells. It is filed as cell-based. To be noted: Homo sapiens, H1-HeLa, 72 h, n=3.
Assay [8] relates to rotavirus (RV). Description: in vitro antiviral assay (CPE, CCK-8). The class given is cell-based. The settings on record: Vero.
Assay [9] concerns respiratory syncytial virus (RSV). Description: in vitro antiviral assay (CPE, CCK-8). The class given is cell-based. The settings on record: human respiratory syncytial virus, HEp-2 host cells, 100 TCID50, n=4.
Assay [10] deals with HEp-2. The assay is described as follows: in vitro cytotoxicity (CCK-8). It is filed as cell-based. The settings on record: Homo sapiens; HEp-2 cells; 72 h; n=3.

Regarding `NC(=O)c1ncn([C@@H]2O[C@H](CO)[C@@H](O)[C@H]2O)n1` [Ribavirin], the IC50 in assay [1], in assay [4], in assay [7] and in assay [10] was above 1000 µg/mL each time. Moreover, the EC50 (usually the concentration needed to bring the measured effect to its halfway point) in [2] was above 30 µg/mL; in [3] it was 20.9 µg/mL (≈ 85.7 µM); in [5], 6.03 µg/mL (≈ 24.7 µM); in assay [6], 102 µg/mL (≈ 417 µM); in assay [8], 20.6 µg/mL (≈ 84.5 µM); in assay [9], above 10 µg/mL.
